The test system of data set [1] is drug-susceptible, MDR and XDR M.tb clinical isolates. Nature of the data set: microbe, parasite or virus in culture. It counts as cell-based, M. tuberculosis. Particulars: drug-susceptible, MDR and XDR clinical isolates.
In data set [2] the test system is M. tuberculosis H37Rv. It counts as in vivo, BALB/c mice. The conditions noted are these: for additional reduction of lung CFU counts on addition to RZ: vs RZ; for reduction of lung CFU counts: monotherapy 300 mg/kg; for effect of addition to BPaL on bactericidal activity: experiment 5.
For data set [3] the following is noted: mouse, in vivo. An excerpt: (§1) The calculated exposures at EDmax for GSK138 and GSK693 were obtained using the intravenous mouse PK profiles fitting to a bicompartmental model to obtain those parameters to simulate the oral whole blood exposures at EDmax. Additionally, a monocompartmental model was used to fit the experimental oral pharmacokinetic studies in non-infected mouse together with measured plasma concentrations obtained from the sparse sampling in the experiment 2 in infected mice. Parameters obtained from this fitting were used to simulate the profile after GSK693 administration at 100, 200, and 300 mg/kg in the combination study and to calculate the associated exposures (see Table 2).

Data set [4] can be described thus: Sparse plasma sampling in infected mice of the combination study (experiment 2). It counts as in vivo, mouse. The conditions noted are these: for Plasma AUC0–24 h: monocompartmental model, combination study; for Blood AUC0–24 h: plasma value transformed with blood/plasma ratio 1.79.
Description: as §1
Tail vein blood was collected at the indicated time points. Briefly, an incision was made in the lateral tail vein. Blood (20–50 µL) was collected in BD Microtainer PST lithium heparin tubes from each mouse. The tubes were kept on ice before being centrifuged at 8,000 rpm for 5 min. The supernatant plasma (15–30 µL) was transferred to labeled microcentrifuge tubes, frozen, and stored at −80°C and then shipped on dry ice to GSK for further analysis.
Ten microliters of plasma or blood samples thawed at ambient temperature was mixed with 200 µL of acetonitrile (ACN):MeOH (80:20). After this protein precipitation step, samples were filtered using a 0.45-µm filter plate [Multiscreen Solvinert 0.45-μm polytetrafluoroethylene (PTFE), Millipore] and then filtered using a 0.2-µm filter [AcroPrep Advance 96 Filter Plate 350 µL, 0.2-µm polytetrafluoroethylene (PTFE)] to ensure sterilization prior to LC-MS analysis.

For data set [5] the following is noted: mouse, in vivo, 10 mg/kg; cited from earlier work.

Each structure is given as a SMILES string. Values after ≈ are worked out from the molar mass of the structure shown. Read-outs that look alike come from different tables or passages of the source.

`Cc1csc([C@](C)(O)c2nnc(Nc3ccn(Cc4csc(C)n4)n3)s2)n1` [GSK693] gave an MIC90 in data set [1] of 1.87 µM (≈ 0.785 µg/mL). The “additional reduction of lung CFU counts on addition to RZ” value in data set [2] (experiment 1, 300 mg/kg, week 8) is 1.44 log; in data set [2] (experiment 2, 100 mg/kg, 8 weeks) it was 1.17 log; in data set [2] (experiment 2, 200 mg/kg, 8 weeks), 1.28 log; in data set [2] (experiment 2, 300 mg/kg, 8 weeks) it was 0.76 log. Besides, in data set [2] (experiment 1, GSK693 300 mg/kg), the “additive effect when combined with sutezolid, linezolid, or pretomanid (lung CFU)” value was “No additive effect”. Also, the “reduction of lung CFU counts” value in data set [2] (experiment 1, 4 weeks of treatment) is on record as 1.34 log10; in data set [2] (experiment 1, 8 weeks of treatment) it was 2.33 log10. The “activity of the combination with RZ vs RZ alone or RZ with isoniazid” value in data set [2] (mouse, in vivo) is recorded as “significantly more active”. The “effect on the activity of the RZ combination” value in data set [2] (mouse, in vivo) is listed as “significantly enhanced”. Besides, in data set [2] (mouse, in vivo, 300 mg/kg), the “efficacy in combination with pretomanid and pyrazinamide compared with moxifloxacin” value is “nor was it as effective as moxifloxacin”. The “exposure needed to achieve the maximum effect in monotherapy in the acute infection model” value in data set [3] is reported as 110,200 ng·h/mL. The “Plasma AUC0–24 h” value in data set [4] (100 mg/kg) is 12,867 ng·h/mL; in data set [4] (200 mg/kg) it was 27,337 ng·h/mL; in data set [4] (300 mg/kg), 64,866 ng·h/mL. Besides, the “Blood AUC0–24 h” value in data set [4] (100 mg/kg) is recorded as 23,032 ng·h/mL; in data set [4] (200 mg/kg), 48,933 ng·h/mL; in data set [4] (300 mg/kg), 116,110 ng·h/mL.

For `NNC(=O)c1ccncc1` [isoniazid, reference compound], the “effect of addition to BPaL on bactericidal activity” value in data set [2] (4 weeks of treatment) is recorded as “significantly increased the bactericidal activity”. Besides, the “effect on the activity of the RZ combination” value in data set [2] (mouse, in vivo) was “did not enhance the activity”.

Regarding `COc1c(N2C[C@@H]3CCCN[C@@H]3C2)c(F)cc2c(=O)c(C(=O)O)cn(C3CC3)c12` [moxifloxacin, reference compound], the “effect of addition to BPaL on bactericidal activity” value in data set [2] (4 weeks of treatment) is on record as “trend toward enhanced activity”.

For the compound `CO[C@H]1/C=C/O[C@@]2(C)Oc3c(C)c(O)c4c(O)c(c(/C=N/N5CCN(C)CC5)c(O)c4c3C2=O)NC(=O)/C(C)=C\C=C\[C@H](C)[C@H](O)[C@@H](C)[C@@H](O)[C@@H](C)[C@H](OC(C)=O)[C@@H]1C` [rifampicin, reference compound], the “AUC0–24 h” value in data set [5] was 87,200–142,100 ng·h/mL. For the same compound, the AUC(0-t) in data set [4] (mouse, plasma, rifampicin co-administered with pyrazinamide, experiment 2, read-out: Plasma AUC0–24 h) stood at 68500 ng·h/mL.

The record behind these values is article PMC11539229 (Antimicrobial Agents and Chemotherapy, 2024).
